In article PMC7932537, “Quantitative profiling of protease specificity” (PLoS Computational Biology, 2021):

Experiments:
[1] = tested on: MMP-2; assay: Substrate phage display with NGS: relative probability (RP) of P3-P1' tetramer clusters; assay type: biochemical, human; conditions: MMP2;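 also: ratio of tetramer probability after protease selection to that in naive phage library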
[2] = biological target: T1, MMP-2 (Homo sapiens, UniProt P08253); assay: K(obs) of individual phage substrates (set of 1369); assay type: biochemical; conditions: MMP2
T1 sequence (P08253 110-660): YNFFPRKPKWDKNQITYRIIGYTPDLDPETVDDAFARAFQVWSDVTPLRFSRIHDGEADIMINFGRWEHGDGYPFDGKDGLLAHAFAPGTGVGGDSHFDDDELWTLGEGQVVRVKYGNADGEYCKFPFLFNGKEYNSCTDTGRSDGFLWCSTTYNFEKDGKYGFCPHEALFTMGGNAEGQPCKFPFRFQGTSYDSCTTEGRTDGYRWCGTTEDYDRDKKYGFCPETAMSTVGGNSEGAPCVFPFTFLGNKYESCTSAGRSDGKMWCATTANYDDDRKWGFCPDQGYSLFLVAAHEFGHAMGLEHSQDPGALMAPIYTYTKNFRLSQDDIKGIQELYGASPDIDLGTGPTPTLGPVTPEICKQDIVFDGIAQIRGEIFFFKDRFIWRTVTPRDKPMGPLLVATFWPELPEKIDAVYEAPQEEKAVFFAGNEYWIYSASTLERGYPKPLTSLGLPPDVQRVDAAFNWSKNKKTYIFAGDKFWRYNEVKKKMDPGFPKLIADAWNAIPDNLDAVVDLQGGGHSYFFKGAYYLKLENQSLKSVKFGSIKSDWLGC

[3] = biological target: MMP-9 (Homo sapiens, UniProt P14780); assay: as above; assay type: biochemical; conditions: MMP9
Sequence of MMP-9 (P14780 94-707): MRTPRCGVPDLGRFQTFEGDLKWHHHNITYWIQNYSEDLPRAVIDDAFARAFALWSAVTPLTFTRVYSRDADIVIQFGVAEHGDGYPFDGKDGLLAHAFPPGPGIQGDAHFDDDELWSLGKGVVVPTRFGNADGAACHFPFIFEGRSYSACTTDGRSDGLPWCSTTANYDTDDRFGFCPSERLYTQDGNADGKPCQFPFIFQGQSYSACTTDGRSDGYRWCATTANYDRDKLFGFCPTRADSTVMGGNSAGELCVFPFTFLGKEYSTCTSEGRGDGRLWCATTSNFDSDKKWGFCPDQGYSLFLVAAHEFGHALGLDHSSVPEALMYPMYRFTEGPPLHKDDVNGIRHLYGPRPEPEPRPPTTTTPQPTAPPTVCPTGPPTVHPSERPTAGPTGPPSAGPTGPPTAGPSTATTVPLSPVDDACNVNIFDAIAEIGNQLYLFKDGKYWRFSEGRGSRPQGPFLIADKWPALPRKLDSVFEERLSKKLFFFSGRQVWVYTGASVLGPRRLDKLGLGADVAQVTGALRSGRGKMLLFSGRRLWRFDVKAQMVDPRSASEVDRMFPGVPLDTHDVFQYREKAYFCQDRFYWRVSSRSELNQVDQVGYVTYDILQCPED

[4] = RP of the P3-P1' tetramer contained in the substrate
[5] = individual phage substrate of the set of 1369 peptides, cleavage position marked by '-'
[6] = individual phage substrate of the set of 1369 peptides, dash in the sequence marks the cleavage position
[7] = RP of the P3-P1' tetramer contained in the substrate (substrate phage display with NGS)
[8] = individual phage substrates, set of 1369 peptides, cleavage position marked by hyphen in sequence
[9] = individual phage substrates, set of 1369 peptides, hyphen in sequence marks cleavage position

Which “relative probability (RP)” value [1, 4] does the source give for ARLGY-LTASG here?
The value was 24.8925.

And the Kobs [2, 5]?
The Kobs was 10866.7 M⁻¹ s⁻¹.

And the “Kobs” value [3, 6]?
Its value is 418.952 M⁻¹ s⁻¹.

With ARPEF-LTASG as the substance, how does the “relative probability (RP)” value [1, 4] read?
The value was 12.0159.

What about the Kobs [2, 5] of the same substance?
The Kobs was 8941.32 M⁻¹ s⁻¹.

What about the “Kobs” value [3, 6] of the same substance?
Its value is 7015.91 M⁻¹ s⁻¹.

What does the source list for ARSYN-LTASG?
relative probability (RP) [1, 4]: 6.093; Kobs [2, 5]: 3165.09 M⁻¹ s⁻¹; Kobs [3, 6]: 3964.21 M⁻¹ s⁻¹

ARVRH-LTASG was tested. Which “relative probability (RP)” value [1, 4] did it give?
Its value is 25.4239.

What about the Kobs [2, 5] of the same substance?
Its Kobs is 7815.03 M⁻¹ s⁻¹.

And the “Kobs” value [3, 6]?
The value was 4335.13 M⁻¹ s⁻¹.

Which results are given for ASTLH-LTASG?
relative probability (RP) [1, 7]: 2.471; Kobs [2, 8]: 0 M⁻¹ s⁻¹; Kobs [3, 9]: 56.119 M⁻¹ s⁻¹

Which “relative probability (RP)” value [1, 7] does the source give for ATIAH-LTASG here?
The value was 32.9345.

And the “Kobs” value [2, 8]?
The value was 12792.1 M⁻¹ s⁻¹.

And the “Kobs” value [3, 9]?
Its value is 1465.65 M⁻¹ s⁻¹.

ATPES-LTASG was tested. Which “relative probability (RP)” value [1, 4] did it give?
The value was 26.0767.

What about the Kobs [2, 5] of the same substance?
Its Kobs is 8941.32 M⁻¹ s⁻¹.

What about the “Kobs” value [3, 6] of the same substance?
The value was 6131.32 M⁻¹ s⁻¹.

How did the “relative probability (RP)” value [1, 4] turn out when AVANS-LTASG was run?
Its value is 10.0738.

What about the Kobs [2, 5] of the same substance?
The Kobs was 7386.83 M⁻¹ s⁻¹.

What about the “Kobs” value [3, 6] of the same substance?
The value was 1465.65 M⁻¹ s⁻¹.

Which results are given for AVLSN-LTASG?
relative probability (RP) [1, 7]: 32.5007; Kobs [2, 8]: 8321.48 M⁻¹ s⁻¹; Kobs [3, 9]: 261.974 M⁻¹ s⁻¹

For AYGSH-LTASG, which “relative probability (RP)” value [1, 4] is on record?
The value was 4.2785.

And the Kobs [2, 5]?
The Kobs was 3253.29 M⁻¹ s⁻¹.

And the “Kobs” value [3, 6]?
Its value is 654.784 M⁻¹ s⁻¹.

For DAVYG-LTASG, which “relative probability (RP)” value [1, 4] is on record?
The value was 17.3788.

What about the Kobs [2, 5] of the same substance?
The Kobs was 1925.41 M⁻¹ s⁻¹.

What about the “Kobs” value [3, 6] of the same substance?
The value was 2615.58 M⁻¹ s⁻¹.

With DKLAS-LTASG as the substance, how does the “relative probability (RP)” value [1, 4] read?
The value was 31.1996.

And the Kobs [2, 5]?
The Kobs was 12792.1 M⁻¹ s⁻¹.

What about the “Kobs” value [3, 6] of the same substance?
The value was 0 M⁻¹ s⁻¹.

How did the “relative probability (RP)” value [1, 4] turn out when DLPAG-LTASG was run?
The value was 36.0156.

And the Kobs [2, 5]?
The Kobs was 12792.1 M⁻¹ s⁻¹.

And the “Kobs” value [3, 6]?
The value was 8321.48 M⁻¹ s⁻¹.

For DNTFH-LTASG, which “relative probability (RP)” value [1, 4] is on record?
Its value is 0.1298.

And the Kobs [2, 5]?
The Kobs was 142.481 M⁻¹ s⁻¹.

What about the “Kobs” value [3, 6] of the same substance?
The value was 0 M⁻¹ s⁻¹.

For DPWRA-LTASG, which “relative probability (RP)” value [1, 4] is on record?
The value was 22.4074.

And the Kobs [2, 5]?
Its Kobs is 6396.07 M⁻¹ s⁻¹.

What about the “Kobs” value [3, 6] of the same substance?
The value was 6396.07 M⁻¹ s⁻¹.

Which results are given for DRPNY-LTASG?
relative probability (RP) [1, 4]: 17.2533; Kobs [2, 5]: 4082.43 M⁻¹ s⁻¹; Kobs [3, 6]: 1196.62 M⁻¹ s⁻¹

For DRQLS-LTASG, which “relative probability (RP)” value [1, 4] is on record?
Its value is 0.4979.

And the Kobs [2, 5]?
The Kobs was 84.609 M⁻¹ s⁻¹.

And the “Kobs” value [3, 6]?
The value was 0 M⁻¹ s⁻¹.

How did the “relative probability (RP)” value [1, 7] turn out when DSLAW-LTASG was run?
Its value is 22.0358.

What about the “Kobs” value [2, 8] of the same substance?
Its value is 10866.7 M⁻¹ s⁻¹.

What about the “Kobs” value [3, 9] of the same substance?
Its value is 1561.44 M⁻¹ s⁻¹.

What does the source list for EHAWN-LTASG?
relative probability (RP) [1, 4]: 14.0049; Kobs [2, 5]: 2218.08 M⁻¹ s⁻¹; Kobs [3, 6]: 2280.5 M⁻¹ s⁻¹

With EIWLP-ITASG as the substance, how does the “relative probability (RP)” value [1, 7] read?
Its value is 0.6666.

And the “Kobs” value [2, 8]?
Its value is 951.362 M⁻¹ s⁻¹.

What about the “Kobs” value [3, 9] of the same substance?
Its value is 142.481 M⁻¹ s⁻¹.

How did the “relative probability (RP)” value [1, 7] turn out when ELMLS-MTASG was run?
The value was 5.234.

And the “Kobs” value [2, 8]?
Its value is 2157.02 M⁻¹ s⁻¹.

And the “Kobs” value [3, 9]?
Its value is 142.481 M⁻¹ s⁻¹.

Which results are given for ELSLA-LTASG?
relative probability (RP) [1, 4]: 6.019; Kobs [2, 5]: 1925.41 M⁻¹ s⁻¹; Kobs [3, 6]: 1112.44 M⁻¹ s⁻¹

For ELVRS-LTASG, which “relative probability (RP)” value [1, 4] is on record?
The value was 12.3051.

And the Kobs [2, 5]?
The Kobs was 12792.1 M⁻¹ s⁻¹.

What about the “Kobs” value [3, 6] of the same substance?
Its value is 12792.1 M⁻¹ s⁻¹.

For EMSWG-LTASG, which “relative probability (RP)” value [1, 7] is on record?
Its value is 0.1389.

What about the “Kobs” value [2, 8] of the same substance?
Its value is 0 M⁻¹ s⁻¹.

What about the “Kobs” value [3, 9] of the same substance?
Its value is 231.616 M⁻¹ s⁻¹.

Which “relative probability (RP)” value [1, 7] does the source give for EMYGN-MTASG here?
The value was 13.8836.

And the “Kobs” value [2, 8]?
The value was 5667.28 M⁻¹ s⁻¹.

What about the “Kobs” value [3, 9] of the same substance?
The value was 451.441 M⁻¹ s⁻¹.

With ENFLH-LTASG as the substance, how does the “relative probability (RP)” value [1, 7] read?
The value was 0.8093.

What about the “Kobs” value [2, 8] of the same substance?
Its value is 142.481 M⁻¹ s⁻¹.

What about the “Kobs” value [3, 9] of the same substance?
The value was 27.918 M⁻¹ s⁻¹.

What does the source list for EQAWY-LTASG?
relative probability (RP) [1, 7]: 0.09636; Kobs [2, 8]: 1154.21 M⁻¹ s⁻¹; Kobs [3, 9]: 726.013 M⁻¹ s⁻¹

Which results are given for EQLSF-LTASG?
relative probability (RP) [1, 7]: 14.5333; Kobs [2, 8]: 12792.1 M⁻¹ s⁻¹; Kobs [3, 9]: 0 M⁻¹ s⁻¹

How did the “relative probability (RP)” value [1, 4] turn out when ERFSH-LTASG was run?
The value was 16.5216.

And the Kobs [2, 5]?
Its Kobs is 2344.36 M⁻¹ s⁻¹.

And the “Kobs” value [3, 6]?
The value was 231.616 M⁻¹ s⁻¹.

Which “relative probability (RP)” value [1, 7] does the source give for ERIYA-LTASG here?
Its value is 6.967.

And the “Kobs” value [2, 8]?
The value was 2687.73 M⁻¹ s⁻¹.

What about the “Kobs” value [3, 9] of the same substance?
The value was 7386.83 M⁻¹ s⁻¹.

Which results are given for ERSLA-WTASG?
relative probability (RP) [1, 4]: 18.2943; Kobs [2, 5]: 2157.02 M⁻¹ s⁻¹; Kobs [3, 6]: 113.394 M⁻¹ s⁻¹

With ERSLN-LTASG as the substance, how does the “relative probability (RP)” value [1, 4] read?
Its value is 3.302.

And the Kobs [2, 5]?
Its Kobs is 726.013 M⁻¹ s⁻¹.

And the “Kobs” value [3, 6]?
The value was 1239.69 M⁻¹ s⁻¹.

For ERVWA-ITASG, which “relative probability (RP)” value [1, 4] is on record?
The value was 3.219.

And the Kobs [2, 5]?
The Kobs was 1239.69 M⁻¹ s⁻¹.

And the “Kobs” value [3, 6]?
Its value is 3438.54 M⁻¹ s⁻¹.

With ESFAA-LTASG as the substance, how does the “relative probability (RP)” value [1, 4] read?
The value was 18.8584.

And the Kobs [2, 5]?
Its Kobs is 12792.1 M⁻¹ s⁻¹.

What about the “Kobs” value [3, 6] of the same substance?
The value was 56.119 M⁻¹ s⁻¹.
